Measurements as given in PMC6109075, “Characterization of membrane penetration and cytotoxicity of C9orf72-encoding arginine-rich dipeptides” (Scientific Reports, 2018).
Entries after “also recorded” stand apart in the source; their conditions may differ. Ends that are not written are not given here. Peptide text beside a SMILES is read from it.

Columns and labels:
NSC34 cells [1] = experiment: Penetration of FITC-conjugated DRPs into NSC34 cells; format: cell-based, mouse; conditions: fluorescence intensity
HEK293 cells = experiment: Confocal imaging of live or fixed/permeabilized HEK293 cells treated with FITC-labeled CPPs; format: cell-based, human; conditions: for entry into fixed/permeabilized cells: HEK293 cells after fixation/permeabilization, 10 μM FITC-peptide
Protocol: HEK293 cells were treated with 10 μM of FITC-labeled CPPs for 1 hr in combination with Nucblue live dye and then washed with PBS twice. The images were obtained by FV10 confocal microscopy (Olympus, Japan) or LSM710 confocal microscopy (Zeiss, Germany).
For RNAse A treatment, the HEK293 cells, fixed and permeabilized, were incubated with 10 μg/ml of recombinant RNAse A for 1 hr at 37 °C, followed by treatment with 10 μM of FITC-labeled peptides for 30 min. The cells were then washed with PBS twice and imaged with a confocal microscopy.

Hela cells = experiment: Peptide penetration assay, Hela cells at different pH (imaging); format: cell-based, human; conditions: PBS pH6.0, pH7.4, pH8.0, 2 μM FITC-peptide, 1 hr
Protocol: For imaging, Hela cells were washed twice with phosphate buffered saline (PBS) (pH7.4) and then incubated with PBS of different pH (pH6.0, pH7.4 and pH8.0) containing 2 μM of FITC-(PR)20 or FITC-R12 for 1 hr, followed by washing with PBS twice. For quantification, HEK293 cells were incubated with 10 μM FITC-(PR)20 in 10% FBS-DMEM for 30 min at 4 °C or 37 °C. The cells were washed twice with PBS and then re-suspended in PBS. The fluorescent signal was measured by a plate reader TECAN infinite F200.

EGFR (Homo sapiens) = EGFR (Homo sapiens) (UniProt P00533); conditions: cited from earlier work
NSC34 cells [2] = experiment: LDH release assay in NSC34 cells; format: cell-based, mouse; conditions: 24 hr, N = 6
Protocol: LDH assay was performed with Cytotoxicity LDH Assay Kit-WST from Wako (Japan) following the manufacture’s protocol. Briefly, mouse neuronal NSC34 cells or human fibroblasts were plated on a 96-well plate at 2 × 10^4 cells/well and then treated with the indicated concentration of peptide for 24 hr (NSC34 cells) or 48 hr (fibroblasts) before measurement of LDH release. The absorbance was measured by iMark microplate absorbance reader (Biorad).

[3] = Functional assay of (PR)12 stability after incubation in culture medium; format: in vitro ADME; conditions: 20 µM (PR)12-FITC, 2 hr with live HEK293 cells in DMEM-10%FBS, conditioned medium transferred to fixed/permeabilized HEK293 cells, read-out nucleolar accumulation
NSC34 cells [4] = experiment: Cytotox glo assay in NSC34 cells; format: cell-based, mouse; conditions: 24 hr, N = 6
From the text: Anti-B23/nucleophosmin antibody was purchased from Cell signaling technology (Danvers, MA). RNAse A was obtained from Qiagen (Hilden, Germany). 1-Step Human Coupled IVT kit, oleic acid, poly-A RNA, Prolong Gold with DAPI and Nucblue live reagent were purchased from ThermoFisher Scientific (Waltham, MA). Cytotoxicity LDH Assay Kit-WST and octanol were obtained from Wako pure chemicals (Japan). Cell Titer-Glo and Cell-tox glo kits were purchased from Promega (Madison, WI). TAMRA-labeled random 15mer RNA was synthesized by Fasmac (Japan). Anti-puromycin antibody was purchased from Millipore.

[5] = tested on: protein translation (Hela cell lysates); experiment: In vitro translation (IVT) assay, turboGFP fluorescence; format: biochemical, human; conditions: cell-free IVT, 100 μM peptide, turboGFP cDNA and Hela cell lysates, 37 °C, read every 1 min, N = 3
Protocol: IVT assay was performed with 1-step Human-Coupled IVT kit (ThermoFisher) following manufacturer’s protocol. Briefly, turboGFP cDNA and Hela cell lysates were mixed in a 96 white-well PCR plate in the presence or absence of 100 μM of each peptide and incubated at 37 °C. The fluorescence from translated turboGFP was measured by LightCycler (Roche lifescience) every 1 min.

[6] = Peptides absorption assay (buffer / octanol containing oleic acid); format: physicochemical; conditions: FITC-labeled peptide, buffers of different pH vs octanol containing 1% oleic acid (v/v), vortexed 5 min, fluorescence
Protocol: All buffers used for the peptide absorption assay were prepared with 140 mM NaCl, 2.5 mM KCl, 5 mM HEPES, 5 mM glycine, and the final pH was adjusted with NaOH or HCl.
The assay to show the effect of pH in peptides absorption into a hydrophobic phase was performed as previously reported. […] Fifty microliter of the buffer-peptide mix and 50 μl of octanol containing 1% of oleic acid (OA) (v/v) were placed into a microtubes and vortexed for 5 min, followed by centrifugation at 2200 g briefly to separate the octanol phase and buffer phase. After separation, octanol phase containing OA and absorbed peptides were collected and the fluorescence was measured by a plate reader TECAN infinite F200 (Mannedorf, Switzerland).

N=C(N)NCCC[C@H](NC(=O)CNC(=O)[C@H](CCCNC(=N)N)NC(=O)CNC(=O)[C@H](CCCNC(=N)N)NC(=O)CNC(=O)[C@H](CCCNC(=N)N)NC(=O)CNC(=O)[C@H](CCCNC(=N)N)NC(=O)CNC(=O)[C@H](CCCNC(=N)N)NC(=O)CNC(=O)[C@H](CCCNC(=N)N)NC(=O)CNC(=O)[C@H](CCCNC(=N)N)NC(=O)CNC(=O)[C@H](CCCNC(=N)N)NC(=O)CNC(=O)[C@H](CCCNC(=N)N)NC(=O)CNC(=O)[C@H](CCCNC(=N)N)NC(=O)CNC(=O)[C@H](CCCNC(=N)N)NC(=O)CNC(=O)[C@H](CCCNC(=N)N)NC(=O)CNC(=O)[C@H](CCCNC(=N)N)NC(=O)CNC(=O)[C@H](CCCNC(=N)N)NC(=O)CNC(=O)[C@H](CCCNC(=N)N)NC(=O)CNC(=O)[C@H](CCCNC(=N)N)NC(=O)CNC(=O)[C@H](CCCNC(=N)N)NC(=O)CNC(=O)[C@H](CCCNC(=N)N)NC(=O)CNC(=O)[C@H](CCCNC(=N)N)NC(=O)CN)C(=O)O [(GR)20]
penetration into NSC34 cells (NSC34 cells [1]): also entered the cells as well

N=C(N)NCCC[C@H](NC(=O)[C@@H]1CCCN1C(=O)[C@H](CCCNC(=N)N)NC(=O)[C@@H]1CCCN1C(=O)[C@H](CCCNC(=N)N)NC(=O)[C@@H]1CCCN1C(=O)[C@H](CCCNC(=N)N)NC(=O)[C@@H]1CCCN1C(=O)[C@H](CCCNC(=N)N)NC(=O)[C@@H]1CCCN1C(=O)[C@H](CCCNC(=N)N)NC(=O)[C@@H]1CCCN1C(=O)[C@H](CCCNC(=N)N)NC(=O)[C@@H]1CCCN1C(=O)[C@H](CCCNC(=N)N)NC(=O)[C@@H]1CCCN1C(=O)[C@H](CCCNC(=N)N)NC(=O)[C@@H]1CCCN1C(=O)[C@H](CCCNC(=N)N)NC(=O)[C@@H]1CCCN1C(=O)[C@H](CCCNC(=N)N)NC(=O)[C@@H]1CCCN1C(=O)[C@H](CCCNC(=N)N)NC(=O)[C@@H]1CCCN1C(=S)Nc1ccc2c(c1)C(=O)OC21c2ccc(O)cc2Oc2cc(O)ccc21)C(=O)O [FITC-(PR)12] (HELM PEPTIDE1{[O=C1OC2(c3ccc(O)cc3Oc3cc(O)ccc32)c2ccc(NC(=S)[*:2])cc21].P.R.P.R.P.R.P.R.P.R.P.R.P.R.P.R.P.R.P.R.P.R.P.R}$$$$V2.0)
entry into fixed/permeabilized cells (HEK293 cells): entered the cells and accumulated to nucleoli

N=C(N)NCCC[C@H](NC(=O)[C@@H]1CCCN1C(=O)[C@H](CCCNC(=N)N)NC(=O)[C@@H]1CCCN1C(=O)[C@H](CCCNC(=N)N)NC(=O)[C@@H]1CCCN1C(=O)[C@H](CCCNC(=N)N)NC(=O)[C@@H]1CCCN1C(=O)[C@H](CCCNC(=N)N)NC(=O)[C@@H]1CCCN1C(=O)[C@H](CCCNC(=N)N)NC(=O)[C@@H]1CCCN1C(=O)[C@H](CCCNC(=N)N)NC(=O)[C@@H]1CCCN1C(=O)[C@H](CCCNC(=N)N)NC(=O)[C@@H]1CCCN1C(=O)[C@H](CCCNC(=N)N)NC(=O)[C@@H]1CCCN1C(=O)[C@H](CCCNC(=N)N)NC(=O)[C@@H]1CCCN1C(=O)[C@H](CCCNC(=N)N)NC(=O)[C@@H]1CCCN1C(=O)[C@H](CCCNC(=N)N)NC(=O)[C@@H]1CCCN1C(=O)[C@H](CCCNC(=N)N)NC(=O)[C@@H]1CCCN1C(=O)[C@H](CCCNC(=N)N)NC(=O)[C@@H]1CCCN1C(=O)[C@H](CCCNC(=N)N)NC(=O)[C@@H]1CCCN1C(=O)[C@H](CCCNC(=N)N)NC(=O)[C@@H]1CCCN1C(=O)[C@H](CCCNC(=N)N)NC(=O)[C@@H]1CCCN1C(=O)[C@H](CCCNC(=N)N)NC(=O)[C@@H]1CCCN1C(=O)[C@H](CCCNC(=N)N)NC(=O)[C@@H]1CCCN1C(=O)[C@H](CCCNC(=N)N)NC(=O)[C@@H]1CCCN1C(=S)Nc1ccc2c(c1)C(=O)OC21c2ccc(O)cc2Oc2cc(O)ccc21)C(=O)O [FITC-(PR)20] (HELM PEPTIDE1{[O=C1OC2(c3ccc(O)cc3Oc3cc(O)ccc32)c2ccc(NC(=S)[*:2])cc21].P.R.P.R.P.R.P.R.P.R.P.R.P.R.P.R.P.R.P.R.P.R.P.R.P.R.P.R.P.R.P.R.P.R.P.R.P.R.P.R}$$$$V2.0)
entry into fixed/permeabilized cells (HEK293 cells): entered the cells and accumulated to nucleoli
penetration of the plasma membrane of live cells (HEK293 cells; live HEK293 cells, 10 μM FITC-peptide added to culture medium): penetrated the plasma membrane and accumulated to nucleoli

N=C(N)NCCC[C@H](NC(=O)[C@H](CCCNC(=N)N)NC(=O)[C@H](CCCNC(=N)N)NC(=O)[C@H](CCCNC(=N)N)NC(=O)[C@H](CCCNC(=N)N)NC(=O)[C@H](CCCNC(=N)N)NC(=O)[C@H](CCCNC(=N)N)NC(=O)[C@H](CCCNC(=N)N)NC(=O)[C@H](CCCNC(=N)N)NC(=O)[C@H](CCCNC(=N)N)NC(=O)[C@H](CCCNC(=N)N)NC(=O)[C@H](CCCNC(=N)N)NC(=S)Nc1ccc2c(c1)C(=O)OC21c2ccc(O)cc2Oc2cc(O)ccc21)C(=O)O [FITC-R12]
effect of extracellular pH on distribution of peptide into cells (Hela cells): higher pH increased the distribution of FITC-labeled CPPs into the cells

GE11
Kd (EGFR (Homo sapiens)): 22 nM

PRPRPRPRPRPRPRPRPRPRPRPR [(PR)12]
cytotoxicity, LDH release (NSC34 cells [2]): did not show cytotoxicity
stability in the culture medium [3]: stable in the culture medium

PRPRPRPRPRPRPRPRPRPRPRPRPRPRPRPRPRPRPRPR [(PR)20]
cytotoxicity, LDH release (NSC34 cells [2]): killed the cells; also recorded: exerted stronger cytotoxicity
cytotoxicity, Cytotox glo luminescence (NSC34 cells [4]): killed the cells
penetration into NSC34 cells (NSC34 cells [1]): entered NSC34 cells more efficiently

amyloid β: amyloid β (40 a.a.), negative control peptide, from Peptide Institute
inhibition of protein translation in vitro (tGFP fluorescence) [5]: did not see inhibitory effect

human insulin: FITC-labeled recombinant human insulin (51 a.a.), non-permeable, from Sigma
effect of pH on absorption of peptide into the octanol phase [6]: did not enhance the absorption
